Source: patent US4965280A, “Antifungal carbinols” (E. I. Du Pont de Nemours and Company, priority 1989, dated 1990)

Legend:
Assay in all cases: Test D
PURPLE NUTSEDGE = type: in vivo, Cyperus rotundus
IVY MORNINGLORY = type: in vivo, Ipomoea hederacea
BARNYARDGRASS = type: in vivo, Echinochloa crus-galli
Procedure: (§1) The Corn and Sorghum Herbicide Test included the following species in both the preemergence and postemergence evaluations:
(§2) Postemergence plantings were grown in Sassafras sandy loam soil. Corn and soybeans were grown in separate 25 cm diameter containers. Sorghum and the seven grass weed species were grown in two 18 cm diameter containers, 4 species per container. The seven broadleaf weed species were also grown in two 18 cm diameter containers, 4 species in one container, 3 species in the second container. One additional planting of corn in an 18 cm diameter container was made. The soil surface of this additional container of corn was covered with the absorbent, perlite, before spray treatment so that test chemicals would enter the plant only via the foliage. The plants were grown 10-21 days, dependent upon the species and then sprayed postemergence with the test chemicals dissolved in a nonpytotoxic solvent.
(§3) Preemergence plantings were grown in fertilized Tama silt loam soil. These plantings are identical to those described in the postemergence section, with the exception of the corn planting having perlite covering the soil surface. These plantings were made the day of or the day before spraying the test chemicals dissolved in a nonphytotoxic solvent.
(§4) Treated plants and controls were maintained in the greenhouse for 2 to 4 weeks. Visual planting response ratings were made on a percentage scale of 0 to 100 in comparison with a control where 0=no injury, and 100=death.

LARGE CRABGRASS = type: in vivo, Digitaria sanguinalis
LADY SMARTWEED = type: in vivo, Polygonum persicaris
Procedure: as §1, §2, §3, §4

REDROOT PIGWEED = type: in vivo, Amaranthus retroflexus
COCKLEBUR = type: in vivo, Xanthium pensylvanicum

`C=C(c1ccccc1)C(O)(Cn1cncn1)c1ccc(Cl)cc1Cl` (stereo not drawn) [Example 50, 2-(2,4-Dichlorophenyl)-3-phenyl-1-(1H-1,2,4-triazol-1-yl)-3-buten-2-ol] showed a plant response (PURPLE NUTSEDGE; POSTEMERGENCE 0250 GM/HA) of 0%, a plant response (PURPLE NUTSEDGE; POSTEMERGENCE 0500 GM/HA) of 0% and a plant response (PURPLE NUTSEDGE; PREEMERGENCE 0064 GM/HA) of 0%. The plant response (PURPLE NUTSEDGE; PREEMERGENCE 0125 GM/HA) was 0%, the plant response (PURPLE NUTSEDGE; PREEMERGENCE 0250 GM/HA) was 0% and the plant response (PURPLE NUTSEDGE; PREEMERGENCE 0500 GM/HA) was 30%. The plant response (IVY MORNINGLORY; POSTEMERGENCE 0250 GM/HA) was 20%, the plant response (IVY MORNINGLORY; POSTEMERGENCE 0500 GM/HA) was 60% and the plant response (IVY MORNINGLORY; PREEMERGENCE 0064 GM/HA) was 0%. It also gave a plant response (IVY MORNINGLORY; PREEMERGENCE 0125 GM/HA) of 30%, a plant response (IVY MORNINGLORY; PREEMERGENCE 0250 GM/HA) of 40% and a plant response (IVY MORNINGLORY; PREEMERGENCE 0500 GM/HA) of 65%. For the same molecule, the plant response (BARNYARDGRASS; POSTEMERGENCE 0250 GM/HA) was 0%, the plant response (BARNYARDGRASS; POSTEMERGENCE 0500 GM/HA) was 0% and the plant response (BARNYARDGRASS; PREEMERGENCE 0064 GM/HA) was 0%. For the same molecule, the plant response (BARNYARDGRASS; PREEMERGENCE 0125 GM/HA) was 0%, the plant response (BARNYARDGRASS; PREEMERGENCE 0250 GM/HA) was 20% and the plant response (BARNYARDGRASS; PREEMERGENCE 0500 GM/HA) was 45%. For the same molecule, the plant response (LARGE CRABGRASS; POSTEMERGENCE 0250 GM/HA) was 70%, the plant response (LARGE CRABGRASS; POSTEMERGENCE 0500 GM/HA) was 100% and the plant response (LARGE CRABGRASS; PREEMERGENCE 0064 GM/HA) was 40%. For the same molecule, the plant response (LARGE CRABGRASS; PREEMERGENCE 0125 GM/HA) was 75%, the plant response (LARGE CRABGRASS; PREEMERGENCE 0250 GM/HA) was 100% and the plant response (LARGE CRABGRASS; PREEMERGENCE 0500 GM/HA) was 100%. It also gave a plant response (LADY SMARTWEED; POSTEMERGENCE 0250 GM/HA) of 30%, a plant response (LADY SMARTWEED; POSTEMERGENCE 0500 GM/HA) of 40% and a plant response (LADY SMARTWEED; PREEMERGENCE 0064 GM/HA) of 0%. It also gave a plant response (LADY SMARTWEED; PREEMERGENCE 0125 GM/HA) of 0%, a plant response (LADY SMARTWEED; PREEMERGENCE 0250 GM/HA) of 20% and a plant response (LADY SMARTWEED; PREEMERGENCE 0500 GM/HA) of 40%. The plant response (REDROOT PIGWEED; POSTEMERGENCE 0250 GM/HA) was 65%, the plant response (REDROOT PIGWEED; POSTEMERGENCE 0500 GM/HA) was 95% and the plant response (REDROOT PIGWEED; PREEMERGENCE 0064 GM/HA) was 0%. The plant response (REDROOT PIGWEED; PREEMERGENCE 0125 GM/HA) was 40%, the plant response (REDROOT PIGWEED; PREEMERGENCE 0250 GM/HA) was 85% and the plant response (REDROOT PIGWEED; PREEMERGENCE 0500 GM/HA) was 100%. The plant response (COCKLEBUR; POSTEMERGENCE 0250 GM/HA) was 25%, the plant response (COCKLEBUR; POSTEMERGENCE 0500 GM/HA) was 40% and the plant response (COCKLEBUR; PREEMERGENCE 0064 GM/HA) was 0%. For the same molecule, the plant response (COCKLEBUR; PREEMERGENCE 0125 GM/HA) was 0%, the plant response (COCKLEBUR; PREEMERGENCE 0250 GM/HA) was 0% and the plant response (COCKLEBUR; PREEMERGENCE 0500 GM/HA) was 25%.
